Measurements reported in ChEMBL document CHEMBL5625240, “Synthesis and evaluation of 2-NMPA derivatives as potential agents for prevention of osteoporosis in vitro and in vivo” (Eur J Med Chem, 2023).
Several values for one entry are separate records, joined by “and”; a condition that tells them apart may be missing. Equal values may be shown once. Each block holds one compound with its values, some of them ahead of it. Activity calls are given as the source filed them. No cut-off for these calls is given here.

Assays:
[1] = system: BMDM; experiment: Anti-osteoporosis activity in mouse BMDM cells assessed as inhibition of RANKL-induced osteoclastogenesis at 2 uM measured for 30 mins in presence of MCSF by TRAP staining based assay; type: functional; settings: for inhibition at 2 µM: Mus musculus, BMDM
[2] = system: BMDM; experiment: Anti-osteoporosis activity in mouse BMDM cells assessed as inhibition of […]-induced osteoclastogenesis at 2 uM measured for 30 mins in presence of MCSF by TRAP staining based assay; type: functional; settings: 0.5 h
[3] = system: BMDM; experiment: Anti-osteoporosis activity in mouse BMDM cells assessed as inhibition of RANKL-induced osteoclastogenesis at 1 uM measured for 30 mins in presence of MCSF by TRAP staining based assay; type: functional; settings: 0.5 h
[4] = system: BMDM; experiment: Inhibition of RANKL/M-CSF-induced osteoclastogenesis in mouse BMDM cells assessed as decrease in Acp5 mRNA level at 1 uM incubated for 4 days by qRT-PCR analysis; type: functional, cell-based; settings: time 4.0 day
[5] = system: BMDM; experiment: Anti-osteoporosis activity in mouse BMDM cells assessed as inhibition of RANKL/M-CSF-induced osteoclasts formation measured for 4 days by TRAP staining based assay; type: functional, cell-based
[6] = system: BMDM; experiment: Cytotoxicity against mouse BMDM cells assessed as reduction in cell viability at < 4 uM incubated for 48 hrs; type: toxicity, cell-based
[7] = system: BMDM; experiment: Anti-osteoclastogenesis activity in mouse BMDM cells assessed as inhibition of RANKL/M-CSF-induced osteoclasts differentiation at below 2 uM measured for 9 days by […] staining based assay; type: functional, cell-based; settings: time 9.0 day
[8] = system: BMDM; experiment: Anti-osteoclastogenesis activity in mouse BMDM cells assessed as inhibition of RANKL/M-CSF-induced osteoclasts differentiation at 2 uM measured for 9 days by […] staining based assay; type: functional; settings: 216 h, time 9 day
[9] = system: BMDM; experiment: Inhibition of RANKL/M-CSF-induced osteoclastogenesis in mouse BMDM cells assessed as reduction in F-actin belt size formation at 500 to 2000 nM incubated for 6 days by immunofluorescence assay; type: functional, cell-based; settings: dose 500-2000 nM, time 6.0 day
[10] = system: BMDM; experiment: Inhibition of RANKL/M-CSF-induced osteoclastogenesis in mouse BMDM cells assessed as reduction in F-actin belt size formation at 1000 nM incubated for 6 days by immunofluorescence assay; type: functional, cell-based; settings: time 6.0 day
[11] = system: BMDM; experiment: Inhibition of RANKL/M-CSF-induced osteoclastogenesis in mouse BMDM cells assessed as reduction in F-actin belt size formation at 1 uM incubated for 6 days by immunofluorescence assay; type: functional, cell-based; settings: time 6.0 day
[12] = system: BMDM; experiment: Inhibition of RANKL/M-CSF-induced osteoclastogenesis in mouse BMDM cells assessed as decrease in bone resorption pit number at 500 to 2000 nM incubated for 6 days by microscopic analysis; type: functional, cell-based; settings: dose 500-2000 nM, time 6.0 day
[13] = system: BMDM; experiment: Inhibition of RANKL/M-CSF-induced osteoclastogenesis in mouse BMDM cells assessed as decrease in bone resorption pit size at 500 to 2000 nM incubated for 6 days by microscopic analysis; type: functional, cell-based; settings: dose 500-2000 nM, time 6.0 day
[14] = system: BMDM; experiment: Inhibition of RANKL/M-CSF-induced osteoclastogenesis in mouse BMDM cells assessed as decrease in Nfatc1 mRNA level at 1 uM incubated for 4 days by qRT-PCR analysis; type: functional, cell-based; settings: time 4.0 day
[15] = system: BMDM; experiment: Inhibition of RANKL/M-CSF-induced osteoclastogenesis in mouse BMDM cells assessed as decrease in Dc-stamp mRNA level at 1 uM incubated for 4 days by qRT-PCR analysis; type: functional, cell-based; settings: time 4.0 day
[16] = system: BMDM; experiment: Inhibition of RANKL/M-CSF-induced osteoclastogenesis in mouse BMDM cells assessed as decrease in Atp6v0d2 mRNA level at 1 uM incubated for 4 days by qRT-PCR analysis; type: functional, cell-based; settings: time 4.0 day
[17] = system: BMDM; experiment: Inhibition of RANKL/M-CSF-induced osteoclastogenesis in mouse BMDM cells assessed as decrease in Mmp9 mRNA level at 1 uM incubated for 4 days by qRT-PCR analysis; type: functional, cell-based; settings: time 4.0 day
[18] = system: BMDM; experiment: Inhibition of RANKL/M-CSF-induced osteoclastogenesis in mouse BMDM cells assessed as decrease in CTSK mRNA level at 1 uM incubated for 4 days by qRT-PCR analysis; type: functional, cell-based; settings: time 4.0 day
[19] = system: BMDM; experiment: Downregulation of NFATc1 expression in mouse RANKL-induced BMDM cells at 1 uM incubated for 4 days by Western blot analysis; type: functional, cell-based; settings: time 4.0 day
[20] = system: BMDM; experiment: Downregulation of TRAF6 expression in RANKL-induced mouse BMDM cells at 1 uM incubated for 4 days by Western blot analysis; type: functional, cell-based; settings: time 4.0 day
[21] = system: BMDM; experiment: Downregulation of c-fos expression in RANKL-induced mouse BMDM cells at 1 uM incubated for 4 days by Western blot analysis; type: functional, cell-based; settings: time 4.0 day
[22] = system: BMDM; experiment: Downregulation of c-src expression in RANKL-induced mouse BMDM cells at 1 uM incubated for 4 days by Western blot analysis; type: functional, cell-based; settings: time 4.0 day
[23] = system: BMDM; experiment: Downregulation of CTSK expression in RANKL-induced mouse BMDM cells at 1 uM incubated for 4 days by Western blot analysis; type: functional, cell-based; settings: time 4.0 day
[24] = system: BMDM; experiment: Inhibition of PI3K phosphorylation in RANKL/M-CSF-induced mouse BMDM cells by Western blot analysis; type: cell-based; settings: dose 1.0 µM
[25] = system: BMDM; experiment: Inhibition of AKT phosphorylation in RANKL/M-CSF-induced mouse BMDM cells by Western blot analysis; type: cell-based; settings: dose 1.0 µM
[26] = target: T1, NF-kappa-B inhibitor alpha (Mus musculus) (UniProt Q9Z1E3); experiment: Inhibition of IkappaBalpha phosphorylation in RANKL/M-CSF-induced mouse BMDM cells by Western blot analysis; type: cell-based; settings: dose 1.0 µM
T1 sequence (whole entry): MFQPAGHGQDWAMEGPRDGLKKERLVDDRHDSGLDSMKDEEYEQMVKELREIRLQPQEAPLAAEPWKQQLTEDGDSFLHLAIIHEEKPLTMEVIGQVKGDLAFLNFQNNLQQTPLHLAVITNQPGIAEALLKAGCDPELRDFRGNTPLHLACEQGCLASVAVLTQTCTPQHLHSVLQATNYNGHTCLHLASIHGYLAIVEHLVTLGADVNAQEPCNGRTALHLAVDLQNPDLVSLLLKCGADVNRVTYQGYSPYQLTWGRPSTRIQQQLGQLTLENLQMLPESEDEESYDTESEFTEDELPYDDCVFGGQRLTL

[27] = system: BMDM; experiment: Inhibition of NF-kappaB phosphorylation in RANKL/M-CSF-induced mouse BMDM cells by Western blot analysis; type: cell-based; settings: dose 1.0 µM
[28] = system: Mus musculus; experiment: Anti-osteoporosis activity in OVX-induced osteoporosis C57BL/6 mouse model assessed as prevention of bone loss in femur at 10 mg/kg, ip daily for 4 weeks by micro computed tomographic analysis; type: functional, organism-based
[29] = system: Mus musculus; experiment: Anti-osteoporosis activity in OVX-induced osteoporosis C57BL/6 mouse model assessed as recovery of bone surface density in femur at 10 mg/kg, ip daily for 4 weeks by micro computed tomographic analysis; type: functional, organism-based
[30] = system: Mus musculus; experiment: Anti-osteoporosis activity in OVX-induced osteoporosis C57BL/6 mouse model assessed as recovery of trabecular separation in femur at 10 mg/kg, ip daily for 4 weeks by micro computed tomographic analysis; type: functional, organism-based
[31] = system: Mus musculus; experiment: Anti-osteoporosis activity in OVX-induced osteoporosis C57BL/6 mouse model assessed as recovery of trabecular number in femur at 10 mg/kg, ip daily for 4 weeks by micro computed tomographic analysis; type: functional, organism-based
[32] = system: Mus musculus; experiment: Anti-osteoporosis activity in OVX-induced osteoporosis C57BL/6 mouse model assessed as recovery of trabecular volume in femur at 10 mg/kg, ip daily for 4 weeks by micro computed tomographic analysis; type: functional, organism-based
[33] = system: Mus musculus; experiment: Anti-osteoporosis activity in OVX-induced osteoporosis C57BL/6 mouse model assessed as reduction in […] level in serum at 10 mg/kg, ip daily for 4 weeks; type: functional, organism-based
[34] = system: BMDM; experiment: Anti-osteoclastogenesis activity in RANKL/M-CSF-induced mouse BMDM cells assessed as inhibition of TRAF6 protein expression at 1 uM measured for 4 days; type: functional, cell-based; settings: time 4.0 day

Compound: COC(=O)c1ccc(N2CCOCC2)c(NC(=O)COc2cccc(C)c2)c1
- inhibition (INH) ([1]; 0.5 h, 2 µM): 94.58% and 52.52%
- inhibition at 2 µM [2]: 2.77%
- inhibition at 1 µM [3]: 52.5%

Compound: O=C(COc1ccccc1Cl)Nc1ccc(O)cc1N1CCOCC1
- inhibition at 1 µM [3]: 27.1%

Compound: O=C(COc1ccccc1Cl)Nc1ccccc1N1CCOCC1
- inhibition at 1 µM [3]: 21%

- IC50 ([5]; 96 h): 358 nM
- inhibition [26]: Active
Compound: CC(=O)Nc1ccc(S(=O)(=O)Oc2ccc(NC(=O)COc3ccccc3Cl)c(N3CCOCC3)c2)cc1
- inhibition [4]: Active
- inhibition at 1 µM [3]: 61.5%
- inhibition ([5]; dose <= 4000.0 nM, time 4.0 day): Dose-Dependent Effect
- Activity [6]: Non-Toxic
- inhibition [7]: inactive
- inhibition at 2 µM [8]: 100%
- inhibition [9]: Active
- inhibition [10]: Active
- inhibition [11]: Active
- inhibition [12]: Active
- inhibition [13]: Active
- inhibition [14]: Active
- inhibition [15]: Active
- inhibition [16]: Active
- inhibition [17]: Active
- inhibition [18]: Active
- Activity [19]: Active
- Activity [20]: Active
- Activity [21]: Active
- Activity [22]: Active
- Activity [23]: Active
- inhibition [24]: Active
- inhibition [25]: Active
- inhibition [27]: Active
- Activity [28]: Active
- Activity [29]: Active
- Activity [30]: Active
- Activity [31]: Active
- Activity [32]: Active
- Activity [33]: Active
- Activity [34]: Active

Compound: CC(C)(C)OC(=O)N[C@@H](Cc1cn(C(=O)OC(C)(C)C)cn1)C(=O)Oc1ccc(NC(=O)COc2ccccc2Cl)c(N2CCOCC2)c1
- inhibition at 1 µM [3]: 34.6%

Compound: O=C(CSc1cccc2ccccc12)Nc1ccccc1N1CCOCC1
- inhibition at 2 µM ([1]; 0.5 h): 61.3%

Compound: Cc1cccc(OCC(=O)Nc2ccccc2N2CCOCC2)c1C
- inhibition at 2 µM ([1]; 0.5 h): 13.6%

Compound: CS(=O)(=O)N(CC(=O)Nc1ccccc1Sc1ccccc1)c1cccc(C(=O)Oc2ccc(NC(=O)COc3ccccc3Cl)c(N3CCOCC3)c2)c1
- inhibition at 1 µM [3]: 50.9%

Compound: O=C(COc1ccccc1Cl)Nc1ccc(OS(=O)(=O)C(F)(F)F)cc1N1CCOCC1
- inhibition at 1 µM [3]: 50.5%

Compound: Cc1cc(OCC(=O)Nc2ccccc2N2CCOCC2)cc(C)c1Cl
- inhibition [1]: inactive

Compound: Cc1ccc(OCC(=O)Nc2cccc(Cl)c2N2CCOCC2)c(C(C)C)c1
- inhibition at 2 µM ([1]; 0.5 h): 86.4%
- inhibition at 2 µM [2]: 82.9%

Compound: CCC(=O)Oc1ccc(NC(=O)COc2ccccc2Cl)c(N2CCOCC2)c1
- inhibition at 1 µM [3]: 32.8%
